Source: patent US20240270821A1, “GIP/GLP1/GCG TRI-RECEPTOR AGONISTS AND USES THEREOF” (priority 2023, published 2024)
Starred links: 1 amine or outer side, 2 acyl side, 3 side chain; linkers in the order of their positions; H or OH if unused. Non-standard residues stand in square brackets, D forms with d. Residues, ends and D or L forms follow the SMILES beside them. Groups on a side chain read outwards from the residue. *: point of attachment. C18 diacid = O=C(O)CCCCCCCCCCCCCCCCC(=O)*; αMePhe(2-F) = C[C@](N)(Cc1ccccc1F)C(=O)O; γGlu = O=C(O)[C@H](CCC(=O)[*:2])N[*:1]; αMe4Pal = C[C@](N)(Cc1ccncc1)C(=O)O; αMeY = C[C@](N)(Cc1ccc(O)cc1)C(=O)O; 4Pal = N[C@@H](Cc1ccncc1)C(=O)O; αMeL = CC(C)C[C@](C)(N)C(=O)O; αMeS = C[C@](N)(CO)C(=O)O; Orn = NCCC[C@H](N)C(=O)O; AEEA = NCCOCCOCC(=O)O; Aib = CC(C)(N)C(=O)O

What was measured:
Assay type in all cases: cell-based
hGIPR [1] = target: T1, hGIPR (Homo sapiens, UniProt P48546); experiment: Functional cAMP activity in the presence of 1% HSA; conditions: read-out: cAMP Rel EC50, hGIPR
T1 sequence (P48546 22-466): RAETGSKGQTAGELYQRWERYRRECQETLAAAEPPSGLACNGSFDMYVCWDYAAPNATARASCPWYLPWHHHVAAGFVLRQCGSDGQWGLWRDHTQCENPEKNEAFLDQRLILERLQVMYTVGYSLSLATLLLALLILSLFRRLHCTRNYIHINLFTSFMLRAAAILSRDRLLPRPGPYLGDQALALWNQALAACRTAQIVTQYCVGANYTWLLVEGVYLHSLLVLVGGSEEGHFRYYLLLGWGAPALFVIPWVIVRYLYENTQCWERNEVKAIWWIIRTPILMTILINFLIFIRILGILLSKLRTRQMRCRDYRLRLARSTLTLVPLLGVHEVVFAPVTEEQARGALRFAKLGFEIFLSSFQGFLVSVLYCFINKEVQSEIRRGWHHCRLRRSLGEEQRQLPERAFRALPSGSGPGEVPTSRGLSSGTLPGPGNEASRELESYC

hGLP-1R [2] = target: T2, hGLP-1R (Homo sapiens, UniProt P43220); experiment: Functional cAMP activity in the presence of 1% HSA; conditions: read-out: cAMP Rel EC50, hGLP-1R
human GcgR = human GcgR (Homo sapiens, UniProt P47871); experiment: Functional cAMP activity in the presence of 1% HSA; conditions: read-out: cAMP Rel EC50, hGcgR
hGIPR [3] = target: T1, hGIPR; experiment: Functional cAMP activation in the presence of 0.1% casein (no HSA); conditions: read-out: Relative cAMP EC50, hGIPR;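 for Relative cAMP EC50, hGIPR: intracellular cAMP rise after 30 min at 37 °C read by HTRF against a standard curve, scaled between buffer alone (0%) and top control ligand concentration (100%), four-parameter fit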;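 for Relative cAMP EC50, hGLP-1R: intracellular cAMP rise after 30 min at 37 °C read by HTRF, normalized between buffer only (0%) and maximal control ligand (100%), four-parameter variable-slope fit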;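 for Relative cAMP EC50, hGcgR: intracellular cAMP rise after 30 min at 37 °C, read by HTRF against a cAMP standard curve, scaled from buffer only (0%) to maximal control ligand response (100%)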
hGLP-1R [4] = target: T2, hGLP-1R; experiment: as above; conditions: read-out: Relative cAMP EC50, hGLP-1R
hGcgR = hGcgR (Homo sapiens, UniProt P47871); experiment: as above; conditions: read-out: Relative cAMP EC50, hGcgR;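 note: intracellular cAMP rise after 30 min at 37 °C, read by HTRF against a cAMP standard curve, scaled from buffer only (0%) to maximal control ligand response (100%)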
Chain of hGcgR (P47871 26-477): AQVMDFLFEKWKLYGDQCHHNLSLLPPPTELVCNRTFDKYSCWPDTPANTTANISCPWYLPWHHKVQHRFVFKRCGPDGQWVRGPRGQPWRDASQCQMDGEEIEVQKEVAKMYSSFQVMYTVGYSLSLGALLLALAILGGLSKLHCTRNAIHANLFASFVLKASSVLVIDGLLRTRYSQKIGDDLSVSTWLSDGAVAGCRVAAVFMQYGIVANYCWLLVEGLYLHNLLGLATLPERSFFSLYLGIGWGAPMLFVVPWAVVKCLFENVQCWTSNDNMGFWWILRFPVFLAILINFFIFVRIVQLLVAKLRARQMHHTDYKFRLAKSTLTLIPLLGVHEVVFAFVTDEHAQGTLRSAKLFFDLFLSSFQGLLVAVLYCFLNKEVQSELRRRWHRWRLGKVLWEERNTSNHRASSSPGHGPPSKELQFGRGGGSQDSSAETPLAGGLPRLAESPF

T2 sequence (P43220 24-463): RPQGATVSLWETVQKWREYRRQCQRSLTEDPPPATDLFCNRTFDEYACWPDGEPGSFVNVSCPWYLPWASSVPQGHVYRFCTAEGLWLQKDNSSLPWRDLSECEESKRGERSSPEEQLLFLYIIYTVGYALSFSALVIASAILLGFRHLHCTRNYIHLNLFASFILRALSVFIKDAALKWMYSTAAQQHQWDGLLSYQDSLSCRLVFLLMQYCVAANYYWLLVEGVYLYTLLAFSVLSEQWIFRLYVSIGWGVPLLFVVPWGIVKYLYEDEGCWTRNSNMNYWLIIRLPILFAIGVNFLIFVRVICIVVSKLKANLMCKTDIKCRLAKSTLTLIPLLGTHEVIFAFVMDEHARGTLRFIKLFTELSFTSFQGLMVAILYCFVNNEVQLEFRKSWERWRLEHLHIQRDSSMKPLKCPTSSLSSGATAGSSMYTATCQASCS
Chain of human GcgR (P47871 26-477): as the sequence (P47871 26-477) above

## CC[C@H](C)[C@H](NC(=O)[C@H](CC(C)C)NC(=O)[C@](C)(Cc1ccc(O)cc1)NC(=O)[C@@H](CCC(=O)O)NC(=O)[C@@H](NC(=O)[C@H](Cc1ccccc1)NC(=O)[C@H](CC(N)=O)NC(=O)C(C)(C)NC(=O)[C@H](CCC(N)=O)NC(=O)[C@H](C)NC(=O)[C@H](CCCCNC(=O)COCCOCCNC(=O)CC[C@H](NC(=O)CC[C@H](NC(=O)CCCCCCCCCCCCCCCCC(=O)O)C(=O)O)C(=O)O)NC(=O)[C@H](CCCN)NC(=O)[C@H](CC(=O)O)NC(=O)[C@H](CC(C)C)NC(=O)[C@](C)(CC(C)C)NC(=O)[C@@H](NC(=O)[C@](C)(CO)NC(=O)[C@H](Cc1ccncc1)NC(=O)[C@H](CC(=O)O)NC(=O)[C@H](CO)NC(=O)[C@@H](NC(=O)[C@](C)(Cc1ccccc1F)NC(=O)[C@@H](NC(=O)CNC(=O)[C@H](CCC(N)=O)NC(=O)C(C)(C)NC(=O)[C@@H](N)Cc1ccc(O)cc1)[C@@H](C)O)[C@@H](C)O)[C@@H](C)CC)[C@@H](C)CC)C(=O)N[C@@H](CCC(=O)O)C(=O)NCC(=O)NCC(=O)N1CCC[C@H]1C(=O)N[C@@H](CO)C(=O)N[C@@H](CO)C(=O)NCC(=O)N[C@@H](CCC(=O)O)C(=O)N1CCC[C@H]1C(=O)N1CCC[C@H]1C(=O)N1CCC[C@H]1C(=O)N[C@@H](CCC(=O)O)C(N)=O [Example 451] (H-Y[Aib]QGT[αMePhe(2-F)]TSD[4Pal][αMeS]I[αMeL]LD[Orn]K([AEEA-γGlu-γGlu-C18 diacid])AQ[Aib]NFI[dE][αMeY]LIEGGPSSGEPPPE-NH2; N-terminus assumed)
hGIPR [1]
  EC50: 0.96 nM
hGLP-1R [2]
  EC50: 10.9 nM
Human GcgR
  EC50: 384 nM
hGIPR [3]
  EC50: 0.0101 nM
hGLP-1R [4]
  EC50: 0.256 nM
hGcgR
  EC50: 4.12 nM

## CC[C@H](C)[C@H](NC(=O)[C@H](CC(C)C)NC(=O)[C@](C)(Cc1ccncc1)NC(=O)[C@@H](CCC(=O)O)NC(=O)[C@@H](NC(=O)[C@H](Cc1ccccc1)NC(=O)[C@H](CCCN)NC(=O)C(C)(C)NC(=O)[C@H](CCC(N)=O)NC(=O)[C@H](C)NC(=O)[C@H](CCCCNC(=O)COCCOCCNC(=O)CC[C@H](NC(=O)CCCCCCCCCCCCCCCCC(=O)O)C(=O)O)NC(=O)[C@H](CCCN)NC(=O)[C@H](CC(=O)O)NC(=O)[C@H](CC(C)C)NC(=O)[C@](C)(CC(C)C)NC(=O)[C@@H](NC(=O)[C@](C)(CO)NC(=O)[C@H](Cc1ccncc1)NC(=O)[C@H](CC(=O)O)NC(=O)[C@H](CO)NC(=O)[C@@H](NC(=O)[C@](C)(Cc1ccccc1F)NC(=O)[C@@H](NC(=O)CNC(=O)[C@H](CCC(N)=O)NC(=O)C(C)(C)NC(=O)[C@@H](N)Cc1ccc(O)cc1)[C@@H](C)O)[C@@H](C)O)[C@@H](C)CC)[C@@H](C)CC)C(=O)N[C@@H](CCC(=O)O)C(=O)NCC(=O)NCC(=O)N1CCC[C@H]1C(=O)N[C@@H](CO)C(=O)N[C@@H](CO)C(=O)NCC(=O)N[C@@H](CCC(=O)O)C(=O)N1CCC[C@H]1C(=O)N1CCC[C@H]1C(=O)N1CCC[C@H]1C(=O)N[C@@H](CCC(=O)O)C(N)=O [Example 453] (H-Y[Aib]QGT[αMePhe(2-F)]TSD[4Pal][αMeS]I[αMeL]LD[Orn]K([AEEA-γGlu-C18 diacid])AQ[Aib][Orn]FI[dE][αMe4Pal]LIEGGPSSGEPPPE-NH2)
hGIPR [1]
  EC50: 1.95 nM
hGLP-1R [2]
  EC50: 20.6 nM
Human GcgR
  EC50: 261 nM
hGIPR [3]
  EC50: 0.0184 nM
hGLP-1R [4]
  EC50: 0.374 nM
hGcgR
  EC50: 7.37 nM

## CC[C@H](C)[C@H](NC(=O)[C@H](CCCN)NC(=O)[C@H](CC(=O)O)NC(=O)[C@H](CC(C)C)NC(=O)[C@H](CC(C)C)NC(=O)[C@@H](NC(=O)[C@H](CO)NC(=O)[C@H](Cc1ccncc1)NC(=O)[C@H](CC(=O)O)NC(=O)[C@H](CO)NC(=O)[C@@H](NC(=O)[C@](C)(Cc1ccccc1F)NC(=O)[C@@H](NC(=O)CNC(=O)[C@H](CCC(N)=O)NC(=O)C(C)(C)NC(=O)[C@@H](N)Cc1ccc(O)cc1)[C@@H](C)O)[C@@H](C)O)[C@@H](C)CC)C(=O)N[C@@H](C)C(=O)N[C@@H](CCC(N)=O)C(=O)NC(C)(C)C(=O)N[C@@H](C)C(=O)N[C@@H](Cc1ccccc1)C(=O)N[C@H](C(=O)N[C@@H](CCCCNC(=O)COCCOCCNC(=O)CC[C@H](NC(=O)CCCCCCCCCCCCCCCCC(=O)O)C(=O)O)C(=O)N[C@@H](Cc1ccc(O)cc1)C(=O)N[C@@H](CC(C)C)C(=O)N[C@@H](CCC(=O)O)C(=O)N[C@@H](CCC(=O)O)C(=O)NCC(=O)NCC(=O)N1CCC[C@H]1C(=O)N[C@@H](CO)C(=O)N[C@@H](CO)C(=O)NCC(=O)N[C@@H](C)C(=O)N1CCC[C@H]1C(=O)N1CCC[C@H]1C(=O)N1CCC[C@H]1C(=O)N[C@@H](CO)C(N)=O)[C@@H](C)CC [Example 454] (H-Y[Aib]QGT[αMePhe(2-F)]TSD[4Pal]SILLD[Orn]IAQ[Aib]AFIK([AEEA-γGlu-C18 diacid])YLEEGGPSSGAPPPS-NH2)
hGIPR [1]
  EC50: 4.31 nM
hGLP-1R [2]
  EC50: 135 nM
Human GcgR
  EC50: 1280 nM
hGIPR [3]
  EC50: 0.0154 nM
hGLP-1R [4]
  EC50: 0.821 nM
hGcgR
  EC50: 9.11 nM

## CC[C@H](C)[C@H](NC(=O)[C@H](CCCCN)NC(=O)[C@H](CC(=O)O)NC(=O)[C@H](CC(C)C)NC(=O)[C@](C)(CC(C)C)NC(=O)[C@@H](NC(=O)[C@H](CO)NC(=O)[C@H](Cc1ccc(O)cc1)NC(=O)[C@H](CC(=O)O)NC(=O)[C@H](CO)NC(=O)[C@@H](NC(=O)[C@](C)(Cc1ccccc1F)NC(=O)[C@@H](NC(=O)CNC(=O)[C@H](CCC(N)=O)NC(=O)C(C)(C)NC(=O)[C@@H](N)Cc1ccc(O)cc1)[C@@H](C)O)[C@@H](C)O)[C@@H](C)CC)C(=O)N[C@@H](C)C(=O)N[C@@H](CCC(N)=O)C(=O)NC(C)(C)C(=O)N[C@@H](C)C(=O)N[C@@H](Cc1ccccc1)C(=O)N[C@H](C(=O)N[C@@H](CCCCNC(=O)COCCOCCNC(=O)CC[C@H](NC(=O)CCCCCCCCCCCCCCCCC(=O)O)C(=O)O)C(=O)N[C@@H](Cc1ccc(O)cc1)C(=O)N[C@@H](CC(C)C)C(=O)N[C@@H](CCC(=O)O)C(=O)N[C@@H](CCC(=O)O)C(=O)NCC(=O)NCC(=O)N1CCC[C@H]1C(=O)N[C@@H](CO)C(=O)N[C@@H](CO)C(=O)NCC(=O)N[C@@H](C)C(=O)N1CCC[C@H]1C(=O)N1CCC[C@H]1C(=O)N1CCC[C@H]1C(=O)N[C@@H](CO)C(N)=O)[C@@H](C)CC [Example 455] (H-Y[Aib]QGT[αMePhe(2-F)]TSDYSI[αMeL]LDKIAQ[Aib]AFIK([AEEA-γGlu-C18 diacid])YLEEGGPSSGAPPPS-NH2)
hGIPR [1]
  EC50: 5.2 nM
hGLP-1R [2]
  EC50: 105 nM
Human GcgR
  EC50: 1200 nM
hGIPR [3]
  EC50: 0.0182 nM
hGLP-1R [4]
  EC50: 0.49 nM
hGcgR
  EC50: 4.36 nM

## CC[C@H](C)[C@H](NC(=O)[C@H](CC(C)C)NC(=O)[C@](C)(Cc1ccc(O)cc1)NC(=O)[C@@H](CCC(=O)O)NC(=O)[C@@H](NC(=O)[C@H](Cc1ccccc1)NC(=O)[C@H](CC(N)=O)NC(=O)C(C)(C)NC(=O)[C@H](CCC(N)=O)NC(=O)[C@H](C)NC(=O)[C@H](CCCCNC(=O)COCCOCCNC(=O)CC[C@H](NC(=O)CCCCCCCCCCCCCCCCC(=O)O)C(=O)O)NC(=O)[C@H](CCCN)NC(=O)[C@H](CC(=O)O)NC(=O)[C@H](CC(C)C)NC(=O)[C@](C)(CC(C)C)NC(=O)[C@@H](NC(=O)[C@](C)(CO)NC(=O)[C@H](Cc1ccncc1)NC(=O)[C@H](CC(=O)O)NC(=O)[C@H](CO)NC(=O)[C@@H](NC(=O)[C@](C)(Cc1ccccc1F)NC(=O)[C@@H](NC(=O)CNC(=O)[C@H](CCC(N)=O)NC(=O)C(C)(C)NC(=O)[C@@H](N)Cc1ccc(O)cc1)[C@@H](C)O)[C@@H](C)O)[C@@H](C)CC)[C@@H](C)CC)C(=O)N[C@@H](CCC(=O)O)C(=O)NCC(=O)NCC(=O)N1CCC[C@H]1C(=O)N[C@@H](CO)C(=O)N[C@@H](CO)C(=O)NCC(=O)N[C@@H](CCC(=O)O)C(=O)N1CCC[C@H]1C(=O)N1CCC[C@H]1C(=O)N1CCC[C@H]1C(=O)N[C@@H](CCC(=O)O)C(N)=O [Example 456] (H-Y[Aib]QGT[αMePhe(2-F)]TSD[4Pal][αMeS]I[αMeL]LD[Orn]K([AEEA-γGlu-C18 diacid])AQ[Aib]NFI[dE][αMeY]LIEGGPSSGEPPPE-NH2)
hGIPR [1]
  EC50: 0.993 nM
hGLP-1R [2]
  EC50: 12.5 nM
Human GcgR
  EC50: 230 nM
hGIPR [3]
  EC50: 0.00913 nM
hGLP-1R [4]
  EC50: 0.19 nM
hGcgR
  EC50: 3.48 nM
